In the oligonucleotide strings, read from the 5' end, every base follows the letter of its sugar. An asterisk marks phosphorothioate; unmarked linkages are phosphodiester. Other units and linkages are bracketed, terminal groups are in braces. A string of capitals states the bases alone. d = 2'-deoxy (DNA); m = 2'-O-methyl
Experiments:
TLR8 = target: T1, TLR8 (Homo sapiens, UniProt Q9NR97); assay: R848-driven IP-10 production in THP-1 cells (TLR8); assay type: cell-based; design: expressed in transfected cells; dose or concentration left out as unconfirmed; details: R848 7 h; for effect of 3-mer 2′OMe oligos on R848-driven IP-10 in THP-1 (in words): 3-mer oligos overnight; for TLR8 potentiation in THP-1, short 2′OMe oligos (IP-10; in words): oligos overnight
T1 sequence (Q9NR97 27-1041): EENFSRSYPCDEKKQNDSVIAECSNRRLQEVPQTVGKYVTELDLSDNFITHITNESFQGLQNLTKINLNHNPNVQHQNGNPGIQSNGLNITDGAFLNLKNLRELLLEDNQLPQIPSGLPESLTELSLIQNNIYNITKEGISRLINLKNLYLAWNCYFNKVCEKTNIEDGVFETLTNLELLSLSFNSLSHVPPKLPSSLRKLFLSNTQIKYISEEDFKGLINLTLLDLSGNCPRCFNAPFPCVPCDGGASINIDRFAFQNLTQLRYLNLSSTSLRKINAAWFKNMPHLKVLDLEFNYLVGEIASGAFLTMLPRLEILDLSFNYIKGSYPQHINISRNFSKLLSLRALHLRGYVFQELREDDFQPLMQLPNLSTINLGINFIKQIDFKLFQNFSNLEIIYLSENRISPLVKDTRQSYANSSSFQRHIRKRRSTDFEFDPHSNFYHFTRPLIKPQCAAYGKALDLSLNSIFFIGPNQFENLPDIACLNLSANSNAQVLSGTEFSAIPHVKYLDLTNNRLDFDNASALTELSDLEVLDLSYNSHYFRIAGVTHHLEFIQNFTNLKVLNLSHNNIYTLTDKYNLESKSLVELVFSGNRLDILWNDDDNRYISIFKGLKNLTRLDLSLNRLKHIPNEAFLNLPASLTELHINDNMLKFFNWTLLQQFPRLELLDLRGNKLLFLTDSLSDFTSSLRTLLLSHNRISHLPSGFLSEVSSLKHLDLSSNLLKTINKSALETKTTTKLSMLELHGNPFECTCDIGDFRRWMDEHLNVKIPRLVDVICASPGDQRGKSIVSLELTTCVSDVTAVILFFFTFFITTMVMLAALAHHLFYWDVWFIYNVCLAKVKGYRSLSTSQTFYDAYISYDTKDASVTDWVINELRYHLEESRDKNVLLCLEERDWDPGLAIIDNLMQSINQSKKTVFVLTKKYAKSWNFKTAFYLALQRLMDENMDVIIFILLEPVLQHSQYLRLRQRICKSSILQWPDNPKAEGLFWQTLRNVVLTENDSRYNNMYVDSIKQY
Description: FIG. 34: THP-1 cells were pre-treated overnight with […] ASOs, prior to R848 stimulation for 7h. […] All ASO conditions are with R848 co-stimulation.
FIG. 35: THP-1 cells were pre-treated overnight with indicated concentrations of ASOs, prior to R848 stimulation for 7h. […] All ASO conditions are with R848 co-stimulation. SEM and two-way ANOVA with Tukey's multiple comparisons to 660-3b condition are shown.
FIG. 36: A, B, C) HEK-TLR8 cells expressing an NF-κB-luciferase reporter were pre-treated 40 min with […] oligos, prior to Motolimod stimulation (400 nM [B] or 600 nM [A and C] overnight). Data shown are averaged from 2 (B) independent or a single experiment (A and C), completed with 3 biological triplicate. The NF-κB-luciferase values are reported to the Motolimod condition. D) THP-1 cells were pre-treated overnight with […] 3-mer oligos, prior to R848 stimulation ([…]) for 7h. IP-10 levels were measured by ELISA. Data shown are averaged from a single experiment completed with 3 biological triplicate, reported to the R848 only condition. A-E) All oligo conditions are with Motolimod or R848 co-stimulation.
Human IP-10 and IFN-β levels were measured using supernatants from the different cultures and were quantified using IP-10 (BD Biosciences, #550926) or IFN-β (PBL assay science, #41415-1) ELISA kits respectively, according to the manufacturers' protocol. Tetramethylbenzidine substrate (Thermo Fisher Scientific) was used for quantification of the cytokines on a Fluostar OPTIMA (BMG LABTECH) plate-reader.

TLR7 = target: T2, TLR7 (Mus musculus, UniProt P58681); assay: Guanosine-induced TNFα in primary BMDMs; assay type: cell-based; design: endogenous in cells; host or cells: primary BMDMs from wild-type mice; details: WT primary BMDMs; 200 nM ASO 30 min; 500 μM Guanosine overnight
T2 sequence (P58681 27-1050): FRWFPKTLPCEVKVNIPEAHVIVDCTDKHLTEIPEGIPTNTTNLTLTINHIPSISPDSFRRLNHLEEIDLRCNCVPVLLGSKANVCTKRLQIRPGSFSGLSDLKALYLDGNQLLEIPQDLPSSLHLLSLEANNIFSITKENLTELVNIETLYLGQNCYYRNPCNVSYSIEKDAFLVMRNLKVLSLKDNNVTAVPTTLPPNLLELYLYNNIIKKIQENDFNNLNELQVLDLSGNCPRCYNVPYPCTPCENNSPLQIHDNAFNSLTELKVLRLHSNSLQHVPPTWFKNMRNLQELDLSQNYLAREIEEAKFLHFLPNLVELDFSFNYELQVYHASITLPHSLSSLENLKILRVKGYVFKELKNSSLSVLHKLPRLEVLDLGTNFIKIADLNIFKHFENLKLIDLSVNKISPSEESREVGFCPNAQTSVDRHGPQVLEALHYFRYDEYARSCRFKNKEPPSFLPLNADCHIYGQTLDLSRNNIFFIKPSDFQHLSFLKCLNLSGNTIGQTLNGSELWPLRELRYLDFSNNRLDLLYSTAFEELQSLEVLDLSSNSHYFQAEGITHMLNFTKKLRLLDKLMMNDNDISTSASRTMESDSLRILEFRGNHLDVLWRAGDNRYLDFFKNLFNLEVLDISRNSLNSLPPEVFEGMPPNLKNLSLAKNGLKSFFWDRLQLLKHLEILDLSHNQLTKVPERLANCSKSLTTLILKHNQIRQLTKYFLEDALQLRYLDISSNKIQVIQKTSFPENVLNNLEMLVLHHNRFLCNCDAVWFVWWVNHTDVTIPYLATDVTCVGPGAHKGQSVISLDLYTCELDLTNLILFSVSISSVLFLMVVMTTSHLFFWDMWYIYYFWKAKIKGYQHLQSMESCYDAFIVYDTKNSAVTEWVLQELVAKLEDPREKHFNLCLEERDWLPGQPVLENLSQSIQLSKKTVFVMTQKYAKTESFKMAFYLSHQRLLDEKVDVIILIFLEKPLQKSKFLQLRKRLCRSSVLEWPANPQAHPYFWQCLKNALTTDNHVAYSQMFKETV

Row | Substance | effect of 3-mer 2′OMe oligos on R848-driven IP-10 in THP-1 (in words) (TLR8) | TNFα production induced by guanosine (in words) (TLR7) | also measured
1 | mGmUmA (GUA; all 2'-O-methyl, backbone not given here; further chemistry not fully specified) [shortMut1-3b] | robustly inhibitory | – | –
2 | mGmAmU (mG*mA*mU) [GAU, 3-mer 2′OMe PS oligo] | robustly the most potent | – | –
3 | mUmCmG (antisense mU*mC*mG) [660-3b] | – | – | TLR8 potentiation in THP-1, short 2′OMe oligos (IP-10; in words) (TLR8): significantly potentiated TLR8 sensing
4 | mGmUmU (mG*mU*mU) [GUU, 3-mer 2′OMe PS oligo] | robustly inhibitory | – | –
5 | mCmUmU (antisense mC*mU*mU) [660-3] | – | – | TLR8 potentiation in THP-1, short 2′OMe oligos (IP-10; in words) (TLR8): did not work; TLR8 potentiation in THP-1, short 2′OMe oligos (IP-10; in words) (TLR8; listed as CUU): did not potentiate TLR8
6 | mGmUmC (mG*mU*mC) [GUC, 3-mer 2′OMe PS oligo] | robustly inhibitory | – | –
7 | mG*mG*mU*A*T*C*C*C*C*C*C*C*C*C*C*C*C*C*C*C (GGUATCCCCCCCCCCCCCCC; antisense; sugars from the 5' end m3 d17, all phosphorothioate, methylation of C not given here) [[C2]Mut1-dC] | – | significantly inhibiting TNFα levels | –
8 | mGmUmG (mG*mU*mG) [GUG, 3-mer 2′OMe PS oligo] | robustly inhibitory | – | –
9 | mC*mG*mU*T*T*C*C*C*C*C*C*C*C*C*C*C*C*C*C*C (CGUTTCCCCCCCCCCCCCCC; antisense; sugars from the 5' end m3 d17, all phosphorothioate, methylation of C not given here) [[C2]Mut1-v3-dC] | – | did not | –
10 | mG*mC*mG*mG*mU*A*T*C*C*A*T*G*T*C*C*mC*mA*mG*mG*mC (mG*mC*mG*mG*mU*dA*dT*dC*dC*dA*dT*dG*dT*dC*dC*mC*mA*mG*mG*mC; antisense) [C2-Mut1] | – | significantly inhibiting TNFα levels | –

Reference: patent publication US20240384268A1, “Oligonucleotides” (Hudson Institute of Medical Research, priority 2021, published 2024)
